Experimental data: ChEMBL document CHEMBL1862790, “Optimisation of fenarimol series for the treatment of Chagas disease”

How the values were obtained:
Trypanosoma cruzi [1] = test: microbe, parasite or virus in culture; format: functional, organism-based, Tulahuen LacZ, Clone C4; conditions: Trypanosoma cruzi, Tulahuen LacZ, Clone C4
[2] = DNDI: Cytotoxicity against L-6 rat myoblasts from skeletal muscle cells; conditions: L6 rat skeletal muscle myoblast cells, IC50
Trypanosoma cruzi [3] = test: microbe, parasite or virus in culture; format: functional, Tulahuen LacZ, Clone C4
[4] = Trypanosoma cruzi, Tulahuen LacZ, Clone C4

IC50 (Trypanosoma cruzi [1])	IC90 (Trypanosoma cruzi [3]; [4])	IC90 (Trypanosoma cruzi [3])	Structure (SMILES)	IC50 [2]
0.024 µM	0.266 µM		CC(C)(C)C(=O)N1CCC(NC(c2ccc(C(F)(F)F)cc2)c2cccnc2)CC1 (stereo not given)	> 100 µM
0.072 µM	0.25 µM		CC(C)Oc1ccc(C(NC2CCN(C(=O)Nc3ccccc3)CC2)c2cccnc2)cc1 (stereo not given)	72.1 µM
0.32 µM	0.83 µM		O=C(N1CCN(C(c2cccnc2)c2ccc(Cl)cc2F)CC1)C(F)(F)F (stereo not given)	> 100 µM
> 1 µM	> 1 µM		CC(C)Oc1ccc(C(c2cccnc2)N(C(=O)C2CC2)C2CCN(C(=O)C3CC3)CC2)cc1 (stereo not given)	> 100 µM
0.0085 µM	0.0575 µM		O=C(NC1CCN(C(c2ccc(C(F)(F)F)cc2)c2cccnc2)CC1)c1ccccc1 (stereo not given)	62.6 µM
0.029 µM	0.12 µM		Cc1ncoc1C(=O)NC1CCN(C(c2ccc(C(F)(F)F)cc2)c2cccnc2)CC1 (stereo not given)	84.7 µM
0.585 µM	0.996 µM		CC(C)(C)NC(=O)N1CCC(NC(c2ccc(C#N)cc2)c2cccnc2)CC1 (stereo not given)	> 100 µM
0.12 µM	0.35 µM		Cc1cc(C(=O)N2CCC(NC(c3ccc(C(F)(F)F)cc3)c3cccnc3)CC2)no1 (stereo not given)	> 100 µM
0.083 µM	0.364 µM		CS(=O)(=O)NC1CCN(C(c2cccnc2)c2ccc(Cl)cc2F)CC1 (stereo not given)	> 100 µM
0.0665 µM	0.279 µM		Cc1cc(C(=O)N2CCN(C(c3cccnc3)c3ccc(Cl)cc3F)CC2)no1 (stereo not given)	69.7 µM
0.04 µM	0.1 µM		CC(C)Oc1ccc(C(O)(c2ccc(Cl)cc2)c2cncnc2)cn1 (stereo not given)	85.9 µM
0.218 µM	0.833 µM		O=C(c1cscn1)N1CCC(NC(c2ccc(C(F)(F)F)cc2)c2cccnc2)CC1 (stereo not given)	> 100 µM
0.0505 µM	0.183 µM		O=C(C1CC1)N1CCN(C(c2ccc(C(F)(F)F)cc2)c2cccnc2)CC1 (stereo not given)	> 100 µM
0.241 µM	0.832 µM		O=C(c1cscn1)N1CCC(NC(c2cccnc2)c2ccc(Cl)cc2F)CC1 (stereo not given)	> 100 µM
0.04 µM	0.173 µM		O=C1NCCN1C1CCN(C(c2ccc(Cl)cc2)c2cccnc2)CC1 (stereo not given)	67.8 µM
0.007 µM	0.036 µM		CCN(CC)C(=O)N1CCC(NC(c2ccc(OC(C)C)cc2)c2cccnc2)CC1 (stereo not given)	> 100 µM
0.011 µM	0.038 µM		CC(C)(C)OC(=O)NC1CCN(C(c2ccc(C(F)(F)F)cc2)c2cccnc2)CC1 (stereo not given)	48 µM
0.076 µM	0.377 µM		Cc1cc(C(=O)NC2CCN(C(c3cncnc3)c3ccc(Cl)cc3F)CC2)no1 (stereo not given)	> 100 µM
0.0105 µM	0.0925 µM		FC(F)(F)c1ccc(C(NC2CCN(c3ncccn3)CC2)c2cccnc2)cc1 (stereo not given)	55.1 µM
0.0805 µM	0.301 µM		CC(C)(C)C(=O)N1CCN(C(c2cncnc2)c2ccc(Cl)cc2F)CC1 (stereo not given)	> 100 µM
0.072 µM	0.28 µM		O=C(NC1CCN(C(c2ccc(C(F)(F)F)cc2)c2cccnc2)CC1)C1CC1 (stereo not given)	> 100 µM
0.0785 µM	0.435 µM		Cc1ncsc1C(=O)NC1CCN(C(c2cncnc2)c2ccc(Cl)cc2F)CC1 (stereo not given)	> 100 µM
0.029 µM	0.095 µM		N#Cc1ccc(C(c2cccnc2)N2CCC(NC(=O)Nc3ccccc3)CC2)cc1 (stereo not given)	> 100 µM

IC50 (Trypanosoma cruzi [1])	IC90 (Trypanosoma cruzi [3]; [4])	IC90 (Trypanosoma cruzi [3])	Structure (SMILES)	IC50 [2]
0.126 µM	0.584 µM		O=C(C1CC1)N1CCC(NC(c2cccnc2)c2ccc(Cl)cc2F)CC1 (stereo not given)	> 100 µM
0.048 µM	0.15 µM		Cc1cc(C(=O)NC2CCN(C(c3ccc(C(F)(F)F)cc3)c3cccnc3)CC2)[nH]n1 (stereo not given)	73.1 µM
0.018 µM	0.082 µM		Cc1ncsc1C(=O)NC1CCN(C(c2ccc(C(F)(F)F)cc2)c2cccnc2)CC1 (stereo not given)	60.4 µM
0.074 µM	0.27 µM		CC(C)Oc1ccc(C(NC2CCN(C(=O)c3ccccc3)CC2)c2cccnc2)cc1 (stereo not given)	> 100 µM
0.433 µM	0.948 µM		N#Cc1ccc(C(NC2CCN(C(=O)c3ccccc3)CC2)c2cccnc2)cc1 (stereo not given)	> 100 µM
0.039 µM	0.367 µM		N#Cc1ccc(C(c2cccnc2)N2CCC(NC(=O)c3cccc(F)c3)CC2)cc1 (stereo not given)	> 100 µM
0.0055 µM		0.42 µM	FC(F)(F)c1ccc(C(NC2CCN(c3nccs3)CC2)c2cccnc2)cc1 (stereo not given)	56.4 µM
0.0245 µM	0.355 µM		NC(=O)c1cccc(C(O)(c2cccnc2)c2ccc(Cl)cc2F)c1 (stereo not given)	> 100 µM
0.05 µM	0.15 µM		CS(=O)(=O)NC1CCN(C(c2ccc(C(F)(F)F)cc2)c2cccnc2)CC1 (stereo not given)	> 100 µM
0.119 µM	0.733 µM		O=C(c1cccc(C(O)(c2ccc(Cl)cc2)c2cccnc2)c1)N1CCC(O)CC1 (stereo not given)	> 100 µM
0.2 µM	0.64 µM		Cc1cc(C(=O)N2CCC(NC(c3ccc(C(F)(F)F)cc3)c3cccnc3)CC2)[nH]n1 (stereo not given)	> 100 µM
0.036 µM	0.243 µM		Cc1ncsc1C(=O)N1CCN(C(c2cccnc2)c2ccc(Cl)cc2F)CC1 (stereo not given)	92.7 µM
0.058 µM	0.248 µM		O=C(c1ccccc1)N1CCC(NC(c2cccnc2)c2ccc(Cl)cc2F)CC1 (stereo not given)	70.9 µM
0.014 µM	0.036 µM		O=C(Nc1ccccc1)NC1CCN(C(c2ccc(C(F)(F)F)cc2)c2cccnc2)CC1 (stereo not given)	31.7 µM
0.0235 µM	0.402 µM		N#Cc1ccc(C(c2cccnc2)N2CCC(NC(=O)c3ccccc3F)CC2)cc1 (stereo not given)	> 100 µM
0.135 µM	0.539 µM		CS(=O)(=O)N1CCC(NC(c2cccnc2)c2ccc(Cl)cc2F)CC1 (stereo not given)	> 100 µM
0.0093 µM	0.027 µM		Cc1cc(C(=O)NC2CCN(C(c3ccc(C(F)(F)F)cc3)c3cccnc3)CC2)no1 (stereo not given)	47.4 µM
0.0185 µM	0.122 µM		N#Cc1ccc(C(c2cccnc2)N2CCC(NC(=O)c3ccc(F)cc3)CC2)cc1 (stereo not given)	> 100 µM
0.0215 µM	0.114 µM		O=C(NC1CCN(C(c2cncnc2)c2ccc(Cl)cc2F)CC1)c1ccc(F)cc1 (stereo not given)	60.1 µM
0.00687 µM	0.0296 µM		N#Cc1ccc(C(c2cccnc2)N2CCC(NC(=O)c3ccc(F)cc3C(F)(F)F)CC2)cc1 (stereo not given)	78.5 µM
0.0062 µM	0.011 µM		CC(C)Oc1ccc(C(NC2CCN(C(=O)OC(C)(C)C)CC2)c2cccnc2)cc1 (stereo not given)	58.8 µM
0.009 µM	0.0655 µM		Fc1cc(Cl)ccc1C(NC1CCN(c2nccs2)CC1)c1cccnc1 (stereo not given)	56.2 µM
0.00825 µM	0.0833 µM		O=C(NC1CCN(C(c2cccnc2)c2ccc(Cl)cc2F)CC1)c1ccccc1 (stereo not given)	56.4 µM

IC50 (Trypanosoma cruzi [1])	IC90 (Trypanosoma cruzi [3]; [4])	IC90 (Trypanosoma cruzi [3])	Structure (SMILES)	IC50 [2]
0.0865 µM	0.426 µM		NC(=O)c1cccc(C(O)(c2cncnc2)c2ccc(Cl)cc2F)c1 (stereo not given)	> 100 µM
0.048 µM	0.19 µM		O=C(c1ccc(F)c(C(O)(c2ccc(Cl)cc2)c2cccnc2)c1)N1CCOCC1 (stereo not given)	> 100 µM
0.025 µM	0.332 µM		OC(c1ccc(Cl)cc1)(c1cccnc1)c1cnc(OCC2CC2)nc1 (stereo not given)	60.4 µM
0.14 µM	0.38 µM		CC(C)Oc1ccc(C(NC2CCN(S(C)(=O)=O)CC2)c2cccnc2)cc1 (stereo not given)	> 100 µM
0.14 µM	0.54 µM		Cc1ncoc1C(=O)N1CCC(NC(c2ccc(C(F)(F)F)cc2)c2cccnc2)CC1 (stereo not given)	> 100 µM
0.173 µM	0.756 µM		Cc1cc(C(=O)NC2CCN(C(c3cncnc3)c3ccc(Cl)cc3F)CC2)[nH]n1 (stereo not given)	> 100 µM
0.011 µM	0.0829 µM		O=C(NC1CCN(C(c2cncnc2)c2ccc(Cl)cc2F)CC1)c1ccc(F)cc1C(F)(F)F (stereo not given)	71.4 µM
0.0795 µM	0.427 µM		CC(C)(C)NC(=O)N1CCC(NC(c2cccnc2)c2ccc(Cl)cc2F)CC1 (stereo not given)	> 100 µM
0.028 µM	0.085 µM		CCN(CC)C(=O)NC1CCN(C(c2ccc(C#N)cc2)c2cccnc2)CC1 (stereo not given)	> 100 µM
0.92 µM	2.78 µM		NC(=O)c1cccc(C(O)(c2ccc(Cl)cc2)c2cncnc2)c1 (stereo not given)	> 100 µM
0.015 µM	0.114 µM		O=C(NC1CCN(C(c2cncnc2)c2ccc(Cl)cc2F)CC1)c1ccc(F)cc1F (stereo not given)	81 µM
0.0155 µM	0.204 µM		O=C(NC1CCN(C(c2cncnc2)c2ccc(Cl)cc2F)CC1)c1c(F)cccc1F (stereo not given)	82.3 µM
0.038 µM	0.13 µM		O=C(NC1CCN(C(c2cccnc2)c2ccc(Cl)cc2F)CC1)C1CC1 (stereo not given)	> 100 µM
0.0765 µM	0.572 µM		CS(=O)(=O)N1CCN(C(c2ccc(C(F)(F)F)cc2)c2cccnc2)CC1 (stereo not given)	> 100 µM
0.0405 µM	0.204 µM		O=C(NC1CCN(C(c2cncnc2)c2ccc(Cl)cc2F)CC1)c1cccc(F)c1 (stereo not given)	61.2 µM
0.6 µM	> 1 µM		CS(=O)(=O)NC1CCN(C(c2ccc(C#N)cc2)c2cccnc2)CC1 (stereo not given)	> 100 µM
0.0295 µM	0.241 µM		O=C(NC1CCN(C(c2cncnc2)c2ccc(Cl)cc2F)CC1)c1cccc(F)c1F (stereo not given)	75.8 µM
> 10 µM	> 10 µM		N#Cc1ccc(C(c2cccnc2)N(C(=O)C2CC2)C2CCN(C(=O)C3CC3)CC2)cc1 (stereo not given)	> 100 µM
0.321 µM	0.797 µM		O=C(N1CCN(C(c2ccc(C(F)(F)F)cc2)c2cccnc2)CC1)C(F)(F)F (stereo not given)	62.6 µM
0.0225 µM	0.104 µM		O=C(NC1CCN(C(c2cncnc2)c2ccc(Cl)cc2F)CC1)c1cc(F)ccc1F (stereo not given)	74.1 µM
0.0175 µM	0.0955 µM		O=C(NC1CCN(C(c2cncnc2)c2ccc(Cl)cc2F)CC1)c1ccccc1F (stereo not given)	> 100 µM
0.024 µM	0.079 µM	0.09 µM	N#Cc1ccc(C(c2cccnc2)N2CCC(NC(=O)c3ccccc3)CC2)cc1 (stereo not given)	> 100 µM
